Assay results as given in ChEMBL document CHEMBL5346971, “Discovery of the First Irreversible HDAC6 Isoform Selective Inhibitor with Potent Anti-Multiple Myeloma Activity” (J Med Chem, 2023).
pIC50: −log10 of the molar value. The source made the active and inactive calls. The calls are words filed in the database; no cut-off is given here.

Assays:
[1] = target: T1, Protein deacetylase HDAC6 (Homo sapiens, UniProt Q9UBN7); experiment: Inhibition of N-terminal GST-tagged human full length recombinant HDAC6 (1 to 1215 residues) expressed in Sf9 cells using Boc-Lys(acetyI)-AMC as substrate preincubated with enzyme for 1 hr followed by substrate addition and measured after 30 mins by fluorescence based analysis
T1 sequence (Q9UBN7 whole entry): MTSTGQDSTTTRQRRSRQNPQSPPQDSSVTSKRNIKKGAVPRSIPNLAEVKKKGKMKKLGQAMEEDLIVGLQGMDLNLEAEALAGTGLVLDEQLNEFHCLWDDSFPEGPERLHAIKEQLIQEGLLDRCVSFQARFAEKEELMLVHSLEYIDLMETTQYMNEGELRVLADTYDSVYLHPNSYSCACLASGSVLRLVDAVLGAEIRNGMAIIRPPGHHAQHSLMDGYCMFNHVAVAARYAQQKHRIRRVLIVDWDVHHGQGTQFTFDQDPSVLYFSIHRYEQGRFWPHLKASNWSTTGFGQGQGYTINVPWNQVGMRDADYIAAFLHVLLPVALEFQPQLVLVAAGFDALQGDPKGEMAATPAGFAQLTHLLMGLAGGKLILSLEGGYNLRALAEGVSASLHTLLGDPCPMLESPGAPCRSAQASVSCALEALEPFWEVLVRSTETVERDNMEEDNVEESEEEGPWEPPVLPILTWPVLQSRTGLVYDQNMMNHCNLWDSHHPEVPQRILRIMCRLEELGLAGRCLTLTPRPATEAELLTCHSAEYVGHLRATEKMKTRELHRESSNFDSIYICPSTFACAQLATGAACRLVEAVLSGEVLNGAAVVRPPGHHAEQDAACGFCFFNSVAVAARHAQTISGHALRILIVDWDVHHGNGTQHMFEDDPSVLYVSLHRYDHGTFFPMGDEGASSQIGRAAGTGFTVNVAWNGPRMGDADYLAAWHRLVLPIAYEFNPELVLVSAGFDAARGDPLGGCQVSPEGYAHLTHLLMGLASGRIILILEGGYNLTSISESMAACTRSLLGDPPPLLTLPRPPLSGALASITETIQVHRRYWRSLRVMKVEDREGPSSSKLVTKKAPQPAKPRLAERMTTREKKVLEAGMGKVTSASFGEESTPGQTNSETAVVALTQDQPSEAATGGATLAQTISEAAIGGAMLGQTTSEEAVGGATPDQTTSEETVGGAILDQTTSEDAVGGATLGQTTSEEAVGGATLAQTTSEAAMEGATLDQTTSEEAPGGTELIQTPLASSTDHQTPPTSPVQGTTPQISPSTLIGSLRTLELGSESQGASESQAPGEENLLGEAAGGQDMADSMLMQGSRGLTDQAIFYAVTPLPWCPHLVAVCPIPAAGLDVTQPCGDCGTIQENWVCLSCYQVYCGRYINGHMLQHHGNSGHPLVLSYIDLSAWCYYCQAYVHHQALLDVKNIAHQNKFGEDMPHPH

[2] = target: Class 1 histone deacetylase (Homo sapiens) (UniProt Q13547+O15379+Q92769+Q9BY41); experiment: Irreversible inhibition of class 1 HDAC in human A549 cells assessed as acetyl histone H4 level at 0.4 uM incubated for 5 hrs followed by drug wash-out for 24 hrs by western blot analysis relative to control; format: cell-based
Class 1 histone deacetylase (Homo sapiens), sequence (O15379 whole entry, looked up): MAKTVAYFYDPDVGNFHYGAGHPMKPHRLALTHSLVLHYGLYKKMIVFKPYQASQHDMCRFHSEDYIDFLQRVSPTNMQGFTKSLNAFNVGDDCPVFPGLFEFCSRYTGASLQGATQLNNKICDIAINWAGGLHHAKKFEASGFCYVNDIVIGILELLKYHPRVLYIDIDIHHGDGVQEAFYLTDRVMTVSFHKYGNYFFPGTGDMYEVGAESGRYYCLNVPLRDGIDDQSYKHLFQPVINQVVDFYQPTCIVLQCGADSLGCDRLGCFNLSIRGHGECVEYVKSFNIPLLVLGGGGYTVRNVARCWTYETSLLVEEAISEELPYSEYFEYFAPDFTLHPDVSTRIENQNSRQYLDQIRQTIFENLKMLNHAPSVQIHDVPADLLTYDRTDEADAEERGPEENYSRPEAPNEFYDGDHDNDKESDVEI
Class 1 histone deacetylase (Homo sapiens), sequence (Q13547 whole entry, looked up): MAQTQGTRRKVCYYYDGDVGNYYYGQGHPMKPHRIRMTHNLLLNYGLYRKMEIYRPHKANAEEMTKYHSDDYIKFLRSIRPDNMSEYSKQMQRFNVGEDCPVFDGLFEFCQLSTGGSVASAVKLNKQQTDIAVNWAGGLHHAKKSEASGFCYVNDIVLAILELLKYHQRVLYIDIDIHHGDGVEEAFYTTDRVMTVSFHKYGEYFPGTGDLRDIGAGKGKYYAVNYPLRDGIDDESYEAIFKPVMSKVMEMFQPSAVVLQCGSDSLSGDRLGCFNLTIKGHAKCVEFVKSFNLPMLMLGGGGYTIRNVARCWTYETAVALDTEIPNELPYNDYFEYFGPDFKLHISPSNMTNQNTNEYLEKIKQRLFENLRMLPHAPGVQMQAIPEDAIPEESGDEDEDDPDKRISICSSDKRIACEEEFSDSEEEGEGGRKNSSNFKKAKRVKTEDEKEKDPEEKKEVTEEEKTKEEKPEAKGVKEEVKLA
Class 1 histone deacetylase (Homo sapiens), sequence (Q92769 whole entry, looked up): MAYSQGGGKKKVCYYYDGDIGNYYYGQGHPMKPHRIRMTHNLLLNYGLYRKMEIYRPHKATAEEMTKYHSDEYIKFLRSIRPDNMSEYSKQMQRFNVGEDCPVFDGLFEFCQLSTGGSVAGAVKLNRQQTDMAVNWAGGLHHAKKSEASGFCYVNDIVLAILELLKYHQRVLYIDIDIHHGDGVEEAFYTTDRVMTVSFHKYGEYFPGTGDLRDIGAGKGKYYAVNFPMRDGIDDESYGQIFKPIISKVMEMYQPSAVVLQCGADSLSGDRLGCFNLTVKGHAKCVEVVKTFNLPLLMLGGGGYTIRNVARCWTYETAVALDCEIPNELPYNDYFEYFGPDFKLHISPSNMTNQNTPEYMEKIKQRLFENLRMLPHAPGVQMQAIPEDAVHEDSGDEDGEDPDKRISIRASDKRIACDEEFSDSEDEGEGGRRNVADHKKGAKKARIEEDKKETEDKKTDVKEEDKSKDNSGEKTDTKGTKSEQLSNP
Class 1 histone deacetylase (Homo sapiens), sequence (Q9BY41 whole entry, looked up): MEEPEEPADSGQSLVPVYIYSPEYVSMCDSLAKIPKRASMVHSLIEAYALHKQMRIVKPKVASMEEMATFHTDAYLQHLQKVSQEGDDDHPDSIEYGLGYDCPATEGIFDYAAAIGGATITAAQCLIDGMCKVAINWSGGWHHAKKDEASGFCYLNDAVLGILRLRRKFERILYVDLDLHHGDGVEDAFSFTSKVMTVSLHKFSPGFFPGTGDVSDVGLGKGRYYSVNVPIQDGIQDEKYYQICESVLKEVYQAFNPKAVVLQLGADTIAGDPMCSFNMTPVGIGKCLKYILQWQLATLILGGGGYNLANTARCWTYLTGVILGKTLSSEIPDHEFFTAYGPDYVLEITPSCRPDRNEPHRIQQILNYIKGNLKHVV

[3] = target: T2, Protein deacetylase HDAC6 (Homo sapiens) (UniProt Q9UBN7); experiment: Irreversible inhibition of HDAC6 in human A549 cells assessed as acetyl alpha-tubulin level at 0.4 uM incubated for 5 hrs followed by drug wash-out for 1 hr by western blot analysis relative to control; format: cell-based
T2 sequence (whole entry): T1 sequence (Q9UBN7 whole entry)

[4] = target: T2, Protein deacetylase HDAC6 (Homo sapiens); experiment: Irreversible inhibition of HDAC6 in human A549 cells assessed as acetyl alpha-tubulin level at 0.4 uM incubated for 5 hrs followed by drug wash-out for 6 hrs by western blot analysis relative to control; format: cell-based
[5] = target: T2, Protein deacetylase HDAC6 (Homo sapiens); experiment: Irreversible inhibition of HDAC6 in human A549 cells assessed as acetyl alpha-tubulin level at 0.4 uM incubated for 5 hrs followed by drug wash-out for 24 hrs by western blot analysis relative to control; format: cell-based
[6] = Effect on HDAC6 protein expression in human A549 cells assessed as change in HDAC6 protein expression at 0.4 uM incubated for 5 hrs followed by drug wash-out and measured following drug wash-out by western blot analysis relative to control; format: functional
Histone deacetylase 1 = Histone deacetylase 1 (Homo sapiens, UniProt Q13547); experiment: Inhibition of C-terminal His/FLAG-tagged human full length recombinant HDAC1 (1 to 482 residues) expressed in Sf9 cells using Boc-Lys(acetyI)-AMC as substrate preincubated with enzyme for 1 hr followed by substrate addition and measured after 30 mins by fluorescence based analysis
Histone deacetylase 1, sequence (Q13547 whole entry, the tested form may be a part): as the sequence (Q13547 whole entry, looked up) above

Histone deacetylase 11 = target: T3, Histone deacetylase 11 (Homo sapiens, UniProt Q96DB2); experiment: Inhibition of human full length recombinant HDAC11 (1 to 347 residues) expressed in Sf9 cells using acetyl-ETDKmyr-AMC as substrate preincubated with enzyme for 1 hr followed by substrate addition and measured after 30 mins by fluorescence based analysis
T3 sequence (Q96DB2 whole entry): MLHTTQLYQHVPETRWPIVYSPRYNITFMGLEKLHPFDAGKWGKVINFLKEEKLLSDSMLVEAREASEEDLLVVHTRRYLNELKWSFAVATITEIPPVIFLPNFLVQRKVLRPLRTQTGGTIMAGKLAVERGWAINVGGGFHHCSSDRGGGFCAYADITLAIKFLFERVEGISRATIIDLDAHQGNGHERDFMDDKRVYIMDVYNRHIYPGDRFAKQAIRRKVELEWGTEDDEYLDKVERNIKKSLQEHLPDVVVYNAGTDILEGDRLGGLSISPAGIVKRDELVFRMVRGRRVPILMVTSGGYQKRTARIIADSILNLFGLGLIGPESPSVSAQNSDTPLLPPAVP

RPMI-8226 [7] = experiment: Antiproliferative activity against human RPMI-8226 cells assessed as inhibition of cell proliferation incubated for 48 hrs by CCK8 assay; format: functional, cell-based; conditions: RPMI-8226, 48 h
RPMI-8226 [8] = experiment: Induction of apoptosis in human RPMI-8226 cells assessed as proportion of late apoptotic cells at 0.5 uM incubated for 24 hrs by AnnexinV-FITC/PI staining based flow cytometry (reference value: 4.18%); format: functional, cell-based
RPMI-8226 [9] = experiment: Induction of cell cycle arrest in human RPMI-8226 cells assessed as proportion of cells at S phase at 0.1 uM incubated for 24 hrs by PI staining based flow cytometry (reference value: 46.7%); format: functional
[10] = Metabolic stability of the compound in mouse liver microsomes assessed as parent compound remaining measured after 60 mins in presence of NADPH by LC-MS/MS analysis; format: ADME, Microsome; conditions: read-out: Stability
RPMI-8226 [11] = experiment: Antitumor activity against human RPMI-8226 cells xenografted in NCG mouse assessed as tumor growth inhibition at 10 ug administered intratumorally every 2 days by vernier caliper analysis; format: functional; conditions: dose 10 µg; route it(Intratumoral)

With `O=C(NO)c1ccc(COc2no[n+]([O-])c2S(=O)(=O)c2ccccc2)cc1` the pIC50 [1] was 7.48, the fold change (FC) [2] was 0.6 and the fold change (FC) [3] was 5.3. The fold change (FC) [4] was 5.1, the fold change (FC) [5] was 4.3 and the “fold change (FC)” value [6] was 1. The pIC50 (Histone deacetylase 1) was 5.32, the pIC50 (Histone deacetylase 11) was 5.28 and the pIC50 (RPMI-8226 [7]) was 6.77. For the same molecule, the Activity (RPMI-8226 [8]) was “Active”, the Activity (RPMI-8226 [9]) was 49.8% and the remaining at 1 h [10] was < 0.35%. For the same molecule, the TGI (RPMI-8226 [11]) was 48%.
